In publication PMC6437697 (Journal of Medicinal Chemistry, 2019) one finds remaining binding data, which are given here for 3 compounds.

What all share (assay): KINOMEscan
What all share (type): binding
Conditions in all cases: read-out: % control activity remaining

The target in test [1] is T1, ABL1(E255K)-phosphorylated (Homo sapiens, UniProt P00519, E255K).
T1 construct: purchased Eurofins DiscoverX KINOMEscan

Test [2] has as its target T2, ERK8 (Homo sapiens, UniProt Q8TD08).
T2 construct: purchased Eurofins DiscoverX KINOMEscan
T2 sequence (Q8TD08 1-544): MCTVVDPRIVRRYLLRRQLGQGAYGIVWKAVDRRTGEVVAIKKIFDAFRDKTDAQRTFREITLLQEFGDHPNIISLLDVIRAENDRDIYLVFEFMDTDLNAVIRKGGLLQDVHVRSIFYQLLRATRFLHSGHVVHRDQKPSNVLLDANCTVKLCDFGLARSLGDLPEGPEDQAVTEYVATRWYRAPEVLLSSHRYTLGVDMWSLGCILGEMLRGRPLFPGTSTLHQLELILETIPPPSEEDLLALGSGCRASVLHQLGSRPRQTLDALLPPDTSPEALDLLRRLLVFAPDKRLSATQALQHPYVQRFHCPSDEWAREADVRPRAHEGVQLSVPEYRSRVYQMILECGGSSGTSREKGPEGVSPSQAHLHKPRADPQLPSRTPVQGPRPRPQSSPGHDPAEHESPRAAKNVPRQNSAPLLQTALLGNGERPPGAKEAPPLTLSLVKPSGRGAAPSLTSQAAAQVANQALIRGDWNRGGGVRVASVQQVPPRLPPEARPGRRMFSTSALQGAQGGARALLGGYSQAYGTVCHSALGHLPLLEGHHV

The target in test [3] is T3, p38-delta (Homo sapiens, UniProt O15264).
T3 construct: purchased Eurofins DiscoverX KINOMEscan
T3 sequence (O15264 1-365): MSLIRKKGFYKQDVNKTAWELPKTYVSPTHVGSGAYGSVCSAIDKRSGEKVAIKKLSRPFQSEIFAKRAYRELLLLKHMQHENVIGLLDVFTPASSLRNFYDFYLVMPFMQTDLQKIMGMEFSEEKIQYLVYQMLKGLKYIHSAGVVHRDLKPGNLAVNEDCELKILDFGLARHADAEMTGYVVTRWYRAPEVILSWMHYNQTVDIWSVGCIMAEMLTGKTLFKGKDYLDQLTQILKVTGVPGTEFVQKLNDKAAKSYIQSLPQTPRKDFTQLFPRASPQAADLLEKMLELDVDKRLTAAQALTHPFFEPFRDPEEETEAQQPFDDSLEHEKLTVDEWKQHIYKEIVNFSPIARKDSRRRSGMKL

Test [4] concerns the target T4, PRKG2 (Homo sapiens, UniProt Q13237).
T4 construct: purchased Eurofins DiscoverX KINOMEscan
T4 sequence (Q13237 1-762): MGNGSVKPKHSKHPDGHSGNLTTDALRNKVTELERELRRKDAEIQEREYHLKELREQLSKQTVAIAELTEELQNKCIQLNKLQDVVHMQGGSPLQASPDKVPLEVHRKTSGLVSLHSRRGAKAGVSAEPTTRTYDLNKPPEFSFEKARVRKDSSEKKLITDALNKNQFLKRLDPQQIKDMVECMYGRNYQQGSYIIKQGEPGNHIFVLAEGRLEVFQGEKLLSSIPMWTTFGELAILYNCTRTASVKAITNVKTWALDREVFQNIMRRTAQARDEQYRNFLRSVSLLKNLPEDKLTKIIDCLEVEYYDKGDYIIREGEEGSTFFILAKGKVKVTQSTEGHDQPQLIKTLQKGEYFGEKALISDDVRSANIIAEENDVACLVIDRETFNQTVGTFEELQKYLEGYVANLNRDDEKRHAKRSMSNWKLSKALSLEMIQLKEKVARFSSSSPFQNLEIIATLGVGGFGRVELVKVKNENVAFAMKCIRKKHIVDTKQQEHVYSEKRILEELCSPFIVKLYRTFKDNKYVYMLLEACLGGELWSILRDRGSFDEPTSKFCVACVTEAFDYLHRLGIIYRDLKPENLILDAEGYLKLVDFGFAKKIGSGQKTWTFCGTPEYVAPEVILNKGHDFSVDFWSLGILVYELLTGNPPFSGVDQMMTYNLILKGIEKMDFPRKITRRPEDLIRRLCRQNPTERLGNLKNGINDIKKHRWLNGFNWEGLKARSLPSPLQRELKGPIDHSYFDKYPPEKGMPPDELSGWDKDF

For test [5], the target named is T5, HCK (Homo sapiens, UniProt P08631).
T5 construct: purchased Eurofins DiscoverX KINOMEscan

The target in test [6] is T6, ADCK3 (Homo sapiens, UniProt Q8NI60).
T6 construct: purchased Eurofins DiscoverX KINOMEscan

In test [7] the target is T7, CAMK1 (Homo sapiens, UniProt Q14012).
T7 construct: purchased Eurofins DiscoverX KINOMEscan

Test [8] has as its target T8, DLK (Homo sapiens, UniProt Q12852).
T8 construct: purchased Eurofins DiscoverX KINOMEscan
T8 sequence (Q12852 1-859): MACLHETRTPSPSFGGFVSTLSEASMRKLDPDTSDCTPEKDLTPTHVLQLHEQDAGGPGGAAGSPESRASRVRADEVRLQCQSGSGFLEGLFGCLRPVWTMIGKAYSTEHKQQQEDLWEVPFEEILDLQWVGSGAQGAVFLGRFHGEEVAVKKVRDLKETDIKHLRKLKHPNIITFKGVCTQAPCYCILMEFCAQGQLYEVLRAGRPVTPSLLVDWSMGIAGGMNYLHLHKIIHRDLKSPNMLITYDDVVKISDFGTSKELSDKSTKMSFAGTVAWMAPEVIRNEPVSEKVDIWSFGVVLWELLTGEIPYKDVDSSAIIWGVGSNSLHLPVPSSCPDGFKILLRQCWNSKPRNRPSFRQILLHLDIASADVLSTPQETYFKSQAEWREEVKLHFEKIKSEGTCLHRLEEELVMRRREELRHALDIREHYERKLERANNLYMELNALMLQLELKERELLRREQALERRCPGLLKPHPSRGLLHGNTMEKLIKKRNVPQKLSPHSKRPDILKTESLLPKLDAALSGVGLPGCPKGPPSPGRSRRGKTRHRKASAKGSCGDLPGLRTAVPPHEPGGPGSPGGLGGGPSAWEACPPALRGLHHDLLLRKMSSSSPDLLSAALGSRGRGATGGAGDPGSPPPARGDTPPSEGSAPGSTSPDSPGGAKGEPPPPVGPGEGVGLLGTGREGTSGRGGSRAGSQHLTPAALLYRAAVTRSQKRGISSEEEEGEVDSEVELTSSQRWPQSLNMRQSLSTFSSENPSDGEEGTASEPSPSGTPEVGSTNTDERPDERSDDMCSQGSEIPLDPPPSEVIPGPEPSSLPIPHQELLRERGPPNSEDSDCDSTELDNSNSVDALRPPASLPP

Test [9] addresses T9, RSK4(Kin.Dom.1-N-terminal) (Homo sapiens, UniProt Q9UK32).
T9 construct: RSK4(Kin.Dom.1-N-terminal); purchased Eurofins DiscoverX KINOMEscan

Test [10] has as its target T10, ERK5 (Homo sapiens, UniProt Q13164).
T10 construct: purchased Eurofins DiscoverX KINOMEscan

T5 sequence (P08631 whole entry): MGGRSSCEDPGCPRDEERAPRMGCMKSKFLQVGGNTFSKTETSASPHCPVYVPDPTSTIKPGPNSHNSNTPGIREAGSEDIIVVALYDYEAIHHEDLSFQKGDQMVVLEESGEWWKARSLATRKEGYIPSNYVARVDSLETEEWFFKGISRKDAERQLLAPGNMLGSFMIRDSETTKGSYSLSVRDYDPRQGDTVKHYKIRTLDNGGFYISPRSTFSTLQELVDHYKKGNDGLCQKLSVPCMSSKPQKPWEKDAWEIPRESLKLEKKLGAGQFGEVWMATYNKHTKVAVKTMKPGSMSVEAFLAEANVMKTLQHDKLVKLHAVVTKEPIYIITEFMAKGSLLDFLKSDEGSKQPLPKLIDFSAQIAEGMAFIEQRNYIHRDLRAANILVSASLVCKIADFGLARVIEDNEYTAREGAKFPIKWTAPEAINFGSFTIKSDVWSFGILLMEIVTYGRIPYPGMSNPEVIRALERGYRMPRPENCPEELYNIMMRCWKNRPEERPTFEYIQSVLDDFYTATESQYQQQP
T6 sequence (Q8NI60 163-647): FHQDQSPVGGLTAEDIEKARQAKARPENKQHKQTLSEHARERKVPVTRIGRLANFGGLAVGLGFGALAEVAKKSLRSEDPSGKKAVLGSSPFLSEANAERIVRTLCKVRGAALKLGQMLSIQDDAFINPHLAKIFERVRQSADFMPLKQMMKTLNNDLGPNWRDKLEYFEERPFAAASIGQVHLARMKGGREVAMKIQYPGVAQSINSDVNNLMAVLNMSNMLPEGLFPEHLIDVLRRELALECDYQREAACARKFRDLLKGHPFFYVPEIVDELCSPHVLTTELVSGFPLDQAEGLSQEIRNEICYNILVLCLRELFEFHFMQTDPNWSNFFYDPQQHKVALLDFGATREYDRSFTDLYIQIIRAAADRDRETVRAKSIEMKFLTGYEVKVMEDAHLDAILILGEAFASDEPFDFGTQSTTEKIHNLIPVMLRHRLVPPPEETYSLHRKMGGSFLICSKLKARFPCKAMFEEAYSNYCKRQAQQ
T1 sequence (P00519 whole entry E255K): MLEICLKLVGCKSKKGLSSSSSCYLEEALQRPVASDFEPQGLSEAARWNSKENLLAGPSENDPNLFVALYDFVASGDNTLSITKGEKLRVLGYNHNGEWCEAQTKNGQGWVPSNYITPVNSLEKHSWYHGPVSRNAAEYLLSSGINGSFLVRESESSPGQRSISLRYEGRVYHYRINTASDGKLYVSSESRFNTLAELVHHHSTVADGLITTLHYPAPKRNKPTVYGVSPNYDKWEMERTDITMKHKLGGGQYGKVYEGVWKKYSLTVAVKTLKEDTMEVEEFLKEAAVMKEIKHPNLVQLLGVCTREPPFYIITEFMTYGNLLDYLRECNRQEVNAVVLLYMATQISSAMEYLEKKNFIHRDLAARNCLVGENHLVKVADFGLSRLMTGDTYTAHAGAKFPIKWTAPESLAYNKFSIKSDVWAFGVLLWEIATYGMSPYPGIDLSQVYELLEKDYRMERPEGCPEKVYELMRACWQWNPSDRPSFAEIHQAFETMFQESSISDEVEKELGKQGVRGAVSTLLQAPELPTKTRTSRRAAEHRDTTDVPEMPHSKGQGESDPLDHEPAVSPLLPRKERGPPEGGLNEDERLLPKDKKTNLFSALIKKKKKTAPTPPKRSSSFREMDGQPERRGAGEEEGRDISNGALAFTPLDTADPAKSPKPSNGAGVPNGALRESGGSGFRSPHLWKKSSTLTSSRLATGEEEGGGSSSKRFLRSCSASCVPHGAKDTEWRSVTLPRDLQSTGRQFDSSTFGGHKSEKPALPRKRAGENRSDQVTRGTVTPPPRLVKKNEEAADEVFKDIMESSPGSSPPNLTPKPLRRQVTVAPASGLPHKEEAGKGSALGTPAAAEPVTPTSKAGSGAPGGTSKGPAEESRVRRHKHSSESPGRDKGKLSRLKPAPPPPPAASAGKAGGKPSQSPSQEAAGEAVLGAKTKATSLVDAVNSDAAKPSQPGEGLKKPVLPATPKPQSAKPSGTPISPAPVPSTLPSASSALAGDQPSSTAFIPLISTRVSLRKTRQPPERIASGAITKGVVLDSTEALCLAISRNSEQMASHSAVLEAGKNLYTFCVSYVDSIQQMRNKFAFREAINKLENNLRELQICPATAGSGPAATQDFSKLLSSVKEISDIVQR
T9 sequence (Q9UK32 73-330 limits assumed): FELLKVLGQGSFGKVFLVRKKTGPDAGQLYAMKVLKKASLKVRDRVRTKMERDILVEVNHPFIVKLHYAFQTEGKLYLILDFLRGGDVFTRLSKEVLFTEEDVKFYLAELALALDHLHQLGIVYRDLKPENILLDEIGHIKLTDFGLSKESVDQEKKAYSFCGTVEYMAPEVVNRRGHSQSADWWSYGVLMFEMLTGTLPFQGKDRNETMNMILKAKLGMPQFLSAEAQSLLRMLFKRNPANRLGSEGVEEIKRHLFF
T7 sequence (Q14012 whole entry, looked up): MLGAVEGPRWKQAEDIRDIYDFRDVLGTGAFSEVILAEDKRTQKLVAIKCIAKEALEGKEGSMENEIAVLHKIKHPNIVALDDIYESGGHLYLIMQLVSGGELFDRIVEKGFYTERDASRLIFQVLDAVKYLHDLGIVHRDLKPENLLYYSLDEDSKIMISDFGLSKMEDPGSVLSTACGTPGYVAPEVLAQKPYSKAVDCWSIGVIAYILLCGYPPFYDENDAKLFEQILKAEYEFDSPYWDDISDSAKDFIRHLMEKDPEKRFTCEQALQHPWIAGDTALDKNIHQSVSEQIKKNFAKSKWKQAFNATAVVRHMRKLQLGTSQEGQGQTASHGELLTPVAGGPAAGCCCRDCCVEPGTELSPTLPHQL
T10 sequence (Q13164 whole entry): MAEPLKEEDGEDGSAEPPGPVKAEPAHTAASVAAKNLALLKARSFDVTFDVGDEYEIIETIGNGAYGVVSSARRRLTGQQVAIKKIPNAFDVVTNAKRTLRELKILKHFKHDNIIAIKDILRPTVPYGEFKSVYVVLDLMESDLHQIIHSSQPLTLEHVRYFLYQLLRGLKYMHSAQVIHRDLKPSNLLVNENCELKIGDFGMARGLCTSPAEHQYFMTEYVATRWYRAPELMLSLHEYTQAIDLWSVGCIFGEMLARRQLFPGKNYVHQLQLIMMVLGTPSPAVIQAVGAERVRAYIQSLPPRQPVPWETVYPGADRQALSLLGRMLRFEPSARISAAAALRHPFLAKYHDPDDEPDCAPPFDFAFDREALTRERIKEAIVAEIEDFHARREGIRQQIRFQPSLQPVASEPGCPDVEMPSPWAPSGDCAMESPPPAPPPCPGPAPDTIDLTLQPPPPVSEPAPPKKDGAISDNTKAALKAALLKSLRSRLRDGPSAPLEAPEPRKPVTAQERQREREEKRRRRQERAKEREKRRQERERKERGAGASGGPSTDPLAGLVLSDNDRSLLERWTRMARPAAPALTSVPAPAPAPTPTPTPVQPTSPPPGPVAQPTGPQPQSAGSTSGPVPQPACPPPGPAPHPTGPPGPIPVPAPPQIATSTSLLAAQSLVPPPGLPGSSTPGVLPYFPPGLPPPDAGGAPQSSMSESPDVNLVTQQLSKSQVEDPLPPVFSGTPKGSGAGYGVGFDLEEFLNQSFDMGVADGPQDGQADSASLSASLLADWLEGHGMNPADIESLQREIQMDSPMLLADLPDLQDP

As to `Clc1cc(NCC2CC2)c2ncc(-c3ccc4[nH]ncc4c3)n2n1` [compound 2, 6-Chloro-N-(cyclopropylmethyl)-3-(1H-indazol-5-yl)imidazo[1,2-b]pyridazin-8-amine], the remaining binding at 1 µM was determined as 100% in [1]; 87% in test [2]; 89% in [3]; 84% in test [4]; 80% in test [5]; 79% in [6]. Also, the remaining binding at 1 µM in [7] worked out at 100%; in test [8], 89%; in test [9], 27%; in test [10], 100%.
As for `O=C(CN1CCOCC1)N[C@H]1CC[C@H](Nc2cc(Cl)nn3c(-c4ccc5[nH]ncc5c4)cnc23)CC1` [compound 26], the remaining binding at 1 µM in [1] was found to be 56%; in [2], 81%; in test [3], 60%; in test [4] it was 64%; in test [5], 93%; in [6], 88%. For the same compound, the remaining binding at 1 µM in [7] came out at 77%; in test [8], 83%; in test [9] it was 13%; in test [10], 98%.
On to `CN1CCC(CNc2cc(Cl)nn3c(-c4cc5nc(Nc6ccccc6)[nH]c5cc4F)cnc23)CC1` [compound 31, 6-Chloro-3-(6-fluoro-2-(phenylamino)-1H-benzo[d]imidazol-5-yl)-N-((1-methylpiperidin-4-yl)methyl)imidazo[1,2-b]pyridazin-8-amine], for which the remaining binding at 1 µM in test [1] turned out to be 86%; in test [2] it was 100%; in [3] it was 72%; in [4], 64%; in [5], 87%; in test [6] it was 85%. For the same compound, the remaining binding at 1 µM in [7] worked out at 84%; in test [8], 100%; in [9], 97%; in test [10], 87%.
